Test in all cases: inhibition of tumour cell growth, NCI panel, 48 h
The test system of test [1] is A498 renal.
The subject of test [2] is COLO 205 colon.
The subject of test [3] is HCC-2998 colon.
The test system of test [4] is HCT-116 colon.
For test [5], the system named is HT29 colon.
Test [6] has as its system K-562 leukemia.
In test [7] the test system is SF-295 CNS.
For test [8], the system named is SK-MEL-28 melanoma.
In test [9] the test system is U251 CNS.
Test [10] deals with UACC-62 melanoma.

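All cell lines were grown in 96-well plates and treated with compound for 48 hours. Definition used: TGI = concentration required for complete inhibition of growth.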 Where only a bound is given, the exact number is not on record here.

For 26 compounds, TGI results are on record in PubChem BioAssay (NCI).

In the case of `N#Cc1nc2cc(Cl)ccc2nc1N1CCN(c2ccc([N+](=O)[O-])cc2)CC1`, the TGI in test [1], in test [2], in [3], in [4], in [5] and in test [6] was greater than 100 µM each time. Further, the TGI in test [7], in test [8], in test [9] and in [10] was greater than 100 µM throughout.

With `COc1cc2ccc(C(=O)NCCCNC(=O)c3ccc4cc(OC)c(OC)cc4c3)cc2cc1OC`, the TGI in [1], in test [2], in test [3], in test [4], in [5] and in [6] was greater than 100 µM in each case. Besides, the TGI in [7], in test [8], in [9] and in test [10] was greater than 100 µM in each case.

With `CC(=O)n1cc(C2CC23N=C(c2ccccc2)OC3=O)c2ccccc21` (stereo unspecified), the TGI turned out to be 56.7 µM in test [1]; 44.8 µM in test [2]; 30.8 µM in test [3]; 27.9 µM in test [4]; 39.9 µM in [5]; 77.6 µM in [6]. For the same compound, the TGI in test [7] was greater than 100 µM; in [8], 45.6 µM; in test [9], 36.8 µM; in test [10] it was 31.7 µM.

For the compound `C[C@]12CC[C@H]3[C@@H](CCC4=CC(=O)C=C[C@@]43OC(=O)C(F)(F)F)[C@@H]1CCC2=O`, the TGI in [1] was greater than 100 µM; in test [2] it was greater than 100 µM; in test [3], greater than 100 µM; in [4], greater than 56 µM; in [5], greater than 100 µM; in [6], greater than 100 µM. Further, the TGI in test [7], in test [8], in test [9] and in test [10] was greater than 100 µM throughout.

For `C[C@@H]1[C@@H](C)C(c2ccccc2)O[Si]1(C(C)(C)C)C(C)(C)C` (stereo partly specified), the TGI was 33.9 µM in test [1]; 30.3 µM in test [2]; greater than 55.8 µM in [3]; 28.8 µM in [4]; 31 µM in [5]; 63.6 µM in test [6]. In addition, the TGI is 30.2 µM in [7], greater than 66.7 µM in [8], 30.7 µM in test [9] and 46.3 µM in test [10].

Consider `NCCCN(CCCCN(CCCN)C(=O)OCc1ccccc1)C(=O)OCc1ccccc1`, for which the TGI in [1], in test [2], in test [3], in [4], in test [5] and in [6] was greater than 100 µM each time. The TGI in [7], in test [8], in test [9] and in test [10] was greater than 100 µM in each case.

For `Cc1cc(S(=O)(=O)Nc2nc3ncccc3[nH]2)c(S)cc1Cl`, the TGI in test [1], in [2], in [3], in [4], in test [5] and in test [6] was greater than 100 µM throughout. In addition, the TGI in test [7], in test [8], in [9] and in test [10] was greater than 100 µM throughout.

As to `CC1=NN(c2cccc(Cl)c2)C2(C1=Cc1ccc(O)cc1)C(Cl)C(=O)N2c1nc2ccccc2s1` (stereo unspecified), the TGI in test [1] amounted to 42.5 µM; in test [3] it was 35 µM; in test [4], 31.3 µM; in test [5], 63.3 µM; in test [6] it was 72.7 µM; in test [7] it was 57 µM. Moreover, the TGI in test [8] is greater than 100 µM; in test [9], 49.2 µM.

Consider `N#CC1(C#N)C(C#N)(C#N)C1(C#N)C(N)=O`, for which the TGI in test [1], in test [2], in [3], in test [4], in test [5] and in test [6] was greater than 100 µM throughout. In addition, the TGI in test [7], in test [8], in [9] and in [10] was greater than 100 µM in each case.

For `CC1C(NNC(N)=O)Oc2cc3c(cc2C1c1ccccc1O)OCO3` (stereo unspecified), the TGI is 68.9 µM in [1]; greater than 100 µM in test [3]; 76.8 µM in test [4]; greater than 100 µM in test [5]; 64.1 µM in test [6]; 76.2 µM in test [7]. The TGI in test [8], in test [9] and in test [10] was greater than 100 µM each time.

As to `COc1ccc(-n2c(=O)c3[nH]c(=S)[nH]c3n(-c3ccc(OC)cc3)c2=S)cc1`, the TGI in [1], in test [2], in test [3], in [4], in [5] and in test [6] was greater than 100 µM in each case. Besides, the TGI in [7], in test [8], in test [9] and in test [10] was greater than 100 µM each time.

Consider `CC(C(=O)OCc1ccccc1)N(Cc1ccccc1)Cc1ccccc1` (stereo unspecified), for which the TGI in [1], in test [2], in test [3], in test [4], in test [5] and in test [6] was greater than 100 µM throughout. The TGI in [7], in test [8], in [9] and in [10] was greater than 100 µM in each case.

For `COc1ccccc1OCC(COC(=O)Nc1ccccc1)OC(=O)Nc1ccccc1` (stereo unspecified), the TGI in test [1], in [2], in test [3], in test [4], in test [5] and in [6] was greater than 100 µM each time. Also, the TGI in test [7], in [8], in [9] and in test [10] was greater than 100 µM in each case.

As for `COc1ccccc1-n1c(=O)n(C)c(=O)n1C(C)(C)C`, the TGI in test [1], in [2], in [3], in [4], in test [5] and in [6] was greater than 100 µM in each case. The TGI in test [8], in [9] and in [10] was greater than 100 µM in each case.

Take `COC(=O)C1=C(OC(=O)/C(=C/c2ccccc2)c2ccc(OC)cc2)C(C(=O)OC)[C@@]2(O)[C@@H](C(=O)OC)[C@H](C)C[C@@H]1[C@@H]2C(=O)OC` (stereo partly specified): the TGI in [1], in test [2], in test [3], in test [4], in test [5] and in test [6] was greater than 100 µM in each case. Further, the TGI in [7], in test [8], in test [9] and in test [10] was greater than 100 µM in each case.

With `Cc1ccc(S(=O)(=O)N2C[C@@H]3CC[C@]4(CO[Si](C)(C)C(C)(C)C)N[C@@H](c5ccccc5)[C@H]2[C@H]34)cc1`, the TGI in test [1] is greater than 100 µM; in test [2] it was 58.8 µM; in [3], 50.5 µM; in test [4], greater than 100 µM; in test [5] it was 42.6 µM; in test [6] it was greater than 100 µM. The TGI in [7], in test [8], in [9] and in [10] was greater than 100 µM throughout.

Regarding `Cn1nc2ccc(Nc3cc(=O)[nH]c4ccc5nn(C)nc5c34)cc2n1`, the TGI in test [1], in test [2], in test [3], in [4], in test [5] and in [6] was greater than 100 µM in each case. In addition, the TGI in test [7], in test [8], in test [9] and in test [10] was greater than 100 µM throughout.

Turning to `COC(=O)[C@@H]1CS(=O)(=O)C(C(C)C)N1C(C)=O` (stereo partly specified), the TGI in [1], in [2], in test [3], in [4], in [5] and in test [6] was greater than 100 µM throughout. For the same compound, the TGI in test [7], in [8], in test [9] and in [10] was greater than 100 µM each time.

Turning to `O=C(O)CSc1ccccc1C(=O)O`, the TGI is greater than 100 µM in test [1]; greater than 100 µM in [2]; 46.8 µM in test [3]; greater than 100 µM in [4]; greater than 100 µM in test [5]; greater than 100 µM in test [6]. Moreover, the TGI in test [7], in [8], in test [9] and in test [10] was greater than 100 µM each time.

In the case of `COc1ccc(C2C3=C(N=C4SC(C(C)=O)=C(C)N42)c2ccccc2CC3)cc1` (stereo unspecified), the TGI in test [1], in test [2], in test [3], in test [4], in [5] and in [7] was greater than 100 µM each time. The TGI in test [8], in test [9] and in [10] was greater than 100 µM throughout.

Take `O=c1[nH]nc(-c2ccccc2)n1/N=C/c1ccc([N+](=O)[O-])o1`: the TGI was 23 µM in [1]; 8.47 µM in test [2]; 12.4 µM in [3]; 5.55 µM in test [4]; greater than 48.7 µM in [5]; greater than 77.1 µM in test [6]. Further, the TGI in test [7] was greater than 55.1 µM; in test [8] it was 10.3 µM; in test [9] it was 18.3 µM; in [10], 11.2 µM.

Regarding `NNC(=O)Nc1nc2ccc(NN)cc2[nH]1`, the TGI in test [1] is 77.3 µM; in test [2] it was 37.3 µM; in test [3] it was 41.4 µM; in test [4], greater than 100 µM; in [5], greater than 100 µM; in test [6] it was 42.1 µM. In addition, the TGI is greater than 100 µM in test [7], 56.8 µM in test [8], greater than 100 µM in test [9] and 56.4 µM in test [10].

With `CCCCc1ccc(Nc2ncc3ncn(COCCO)c3n2)cc1`, the TGI in test [1] was greater than 100 µM; in [2], greater than 100 µM; in test [3], 40.7 µM; in [4] it was 65.4 µM; in test [5], 50 µM; in test [6], 52.7 µM. Moreover, the TGI in test [7] is 80.1 µM; in [9], greater than 100 µM; in [10], 77.7 µM.

For `CC1CC[C@@]2(OC1)O[C@H]1[C@H](O)[C@H]3[C@@H]4CC[C@H]5C[C@@H](OC6OC(CO)C(OC7OC(CO)C(O)C(OC8OCC(O)C(O)C8O)C7OC7OC(CO)C(O)C(O)C7OC7OC(CO)C(O)C(O)C7O)C(O)C6O)[C@H](O)C[C@]5(C)[C@H]4CC[C@]3(C)[C@H]1[C@@H]2C` (stereo partly specified), the TGI in test [1], in test [2], in test [3], in [4], in test [5] and in test [6] was greater than 10 µM each time. Moreover, the TGI in [8], in [9] and in [10] was greater than 10 µM in each case.

In the case of `NC(Cc1ccc(OCc2ccccc2)cc1)C(=O)NC(Cc1ccccc1)C(=O)Oc1c(Cl)c(Cl)c(Cl)c(Cl)c1Cl` (stereo unspecified), the TGI in test [1] was 37.9 µM; in test [2], 28.3 µM; in test [3], 34 µM; in test [4], 31.3 µM; in test [5], 32.1 µM; in test [6], greater than 100 µM. Moreover, the TGI worked out at 31.6 µM in test [8], 31.2 µM in test [9] and 32.7 µM in test [10].

`O=C1c2cc(Cc3ccccc3)c(=O)c(Cc3ccccc3)cc2C(=O)c2cc(Cc3ccccc3)c(=O)c(Cc3ccccc3)cc21`: the TGI in [1], in [2], in [3], in test [4], in test [5] and in test [6] was greater than 100 µM throughout. The TGI in test [7], in test [8] and in [9] was greater than 100 µM in each case.
